Assay results: ChEMBL document CHEMBL1201862, “PubChem BioAssay data set” (2004)
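Dose response: 5 concentrations. Exposure: 48 h. Format: 96-well plates. Endpoint: linear interpolation; highest concentration if not reached. At the GI50, growth is halved.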 The source made the active and inactive calls. Rule as the data show it: active = GI50 up to about 1.1 µM and inactive = higher.

What was measured:
Assay in all cases: inhibition of tumour cell growth, NCI panel, 48 h
A498 = tested on: A498
CCRF-CEM = tested on: CCRF-CEM
COLO 205 = tested on: COLO 205
EKVX = tested on: EKVX
HCC 2998 = tested on: HCC 2998
LOX IMVI = tested on: LOX IMVI
M14 = tested on: M14
Malme-3M = tested on: Malme-3M
NCI-H226 = tested on: NCI-H226
NCI-H522 = tested on: NCI-H522
NCI/ADR-RES = tested on: NCI/ADR-RES
OVCAR-8 = tested on: OVCAR-8
RXF 393 = tested on: RXF 393
SF-268 = tested on: SF-268
SK-MEL-28 = tested on: SK-MEL-28
SW-620 = tested on: SW-620
T47D = tested on: T47D
UO-31 = tested on: UO-31

Row | SMILES | GI50 (A498) | GI50 (CCRF-CEM) | GI50 (COLO 205) | GI50 (EKVX) | GI50 (HCC 2998) | GI50 (LOX IMVI) | GI50 (M14) | GI50 (Malme-3M) | GI50 (NCI-H226) | GI50 (NCI-H522) | GI50 (NCI/ADR-RES) | GI50 (OVCAR-8) | GI50 (RXF 393) | GI50 (SF-268) | GI50 (SK-MEL-28) | GI50 (SW-620) | GI50 (T47D) | GI50 (UO-31)
1 | CC[C@@H]1CN(C)[C@H]2Cc3c([nH]c4ccccc34)C(=O)C[C@H]1C2C(=O)OC (stereo partly specified) | > 100 µM (inactive) | 96.6 µM (inactive) | > 100 µM (inactive) | > 100 µM (inactive) | > 100 µM (inactive) | > 100 µM (inactive) | > 100 µM (inactive) | > 100 µM (inactive) | > 100 µM (inactive) | > 100 µM (inactive) | > 95.7 µM (inactive) | > 100 µM (inactive) | > 77.8 µM (inactive) | > 100 µM (inactive) | > 100 µM (inactive) | > 100 µM (inactive) | > 100 µM (inactive) | > 100 µM (inactive)
2 | CCC(=O)C1(N2CCOCC2)CCN(CCCC(=O)c2ccc(F)cc2)CC1 | > 100 µM (inactive) | > 100 µM (inactive) | > 100 µM (inactive) | > 100 µM (inactive) | > 100 µM (inactive) | > 100 µM (inactive) | > 100 µM (inactive) | > 100 µM (inactive) | > 100 µM (inactive) | > 100 µM (inactive) | > 100 µM (inactive) | > 100 µM (inactive) | > 100 µM (inactive) | > 100 µM (inactive) | > 100 µM (inactive) | > 100 µM (inactive) | > 100 µM (inactive) | > 100 µM (inactive)
3 | Nc1nc(Cl)c(N)c(NCC2(CO)CCC(OCc3ccccc3)C2)n1 (stereo unspecified) | 0.982 µM (active) | > 100 µM (inactive) | > 100 µM (inactive) | 0.931 µM (active) | > 100 µM (inactive) | 18.5 µM (inactive) | – | 39.5 µM (inactive) | 0.433 µM (active) | > 100 µM (inactive) | 13.5 µM (inactive) | > 100 µM (inactive) | 8.85 µM (inactive) | > 100 µM (inactive) | > 100 µM (inactive) | > 100 µM (inactive) | 0.372 µM (active) | > 100 µM (inactive)
4 | Cc1ccc2c(c1)CC1(C2)Cc2ccc(C)cc2C1=O (stereo unspecified) | 36.9 µM (inactive) | 22.1 µM (inactive) | 15.4 µM (inactive) | 32.2 µM (inactive) | 25.9 µM (inactive) | 20.1 µM (inactive) | 20.2 µM (inactive) | 12.5 µM (inactive) | 11.5 µM (inactive) | 19.9 µM (inactive) | 15.9 µM (inactive) | 36.5 µM (inactive) | 17.9 µM (inactive) | 32 µM (inactive) | 42 µM (inactive) | 30.6 µM (inactive) | 59.6 µM (inactive) | 27.5 µM (inactive)
5 | CC(C)(C)c1cc2c(O)c(c1)Cc1cc(C(C#N)(Cc3ccc4ccccc4c3)Cc3ccc4ccccc4c3)cc(c1O)Cc1cc(C(C)(C)C)cc(c1O)Cc1cc(C(C#N)(Cc3ccc4ccccc4c3)Cc3ccc4ccccc4c3)cc(c1O)C2 | > 100 µM (inactive) | > 100 µM (inactive) | > 100 µM (inactive) | > 100 µM (inactive) | > 100 µM (inactive) | > 100 µM (inactive) | > 100 µM (inactive) | > 100 µM (inactive) | > 100 µM (inactive) | > 100 µM (inactive) | > 100 µM (inactive) | > 100 µM (inactive) | > 100 µM (inactive) | > 100 µM (inactive) | > 100 µM (inactive) | > 100 µM (inactive) | > 100 µM (inactive) | > 100 µM (inactive)
6 | CCOC(=O)/C=C(\C(=O)OCC)n1cc(C)c(=O)n(Cc2cnnn2CCCCOC(C)=O)c1=O | 22.2 µM (inactive) | 0.661 µM (active) | 2.09 µM (inactive) | 11.3 µM (inactive) | 21 µM (inactive) | 4.06 µM (inactive) | 20.9 µM (inactive) | 1.82 µM (inactive) | 7.43 µM (inactive) | 1.38 µM (inactive) | 8.79 µM (inactive) | 3.37 µM (inactive) | 2.7 µM (inactive) | 15.7 µM (inactive) | 7.35 µM (inactive) | 2.32 µM (inactive) | 21.7 µM (inactive) | 15 µM (inactive)
7 | CC(C)C1=CC(=O)[C@@](C)(C2[C@H](O)C[C@@]3(C)[C@@H]4CC=C5[C@@H](CC[C@@H](OC6OCC(O)C(O)C6OC6OC(C)C(O)C(O)C6O)C5(C)C)[C@]4(C)C(=O)C[C@]23C)O1 (stereo partly specified) | > 100 µM (inactive) | > 100 µM (inactive) | > 100 µM (inactive) | > 100 µM (inactive) | > 100 µM (inactive) | – | > 100 µM (inactive) | > 100 µM (inactive) | > 100 µM (inactive) | > 100 µM (inactive) | > 100 µM (inactive) | > 100 µM (inactive) | > 100 µM (inactive) | > 100 µM (inactive) | > 100 µM (inactive) | > 100 µM (inactive) | > 100 µM (inactive) | > 100 µM (inactive)
8 | CN(CCCNC(=O)c1n[nH]c2c1ccc1ccccc12)CCCNC(=O)c1n[nH]c2c1ccc1ccccc12 | 17.8 µM (inactive) | 11.1 µM (inactive) | 2.69 µM (inactive) | 21.4 µM (inactive) | 1.9 µM (inactive) | 12.5 µM (inactive) | 4.3 µM (inactive) | 10.3 µM (inactive) | 13.4 µM (inactive) | 16.8 µM (inactive) | > 100 µM (inactive) | 16.4 µM (inactive) | 14.4 µM (inactive) | 14.7 µM (inactive) | 2.09 µM (inactive) | 16.3 µM (inactive) | 16 µM (inactive) | 14.6 µM (inactive)
9 | [O-][S+]1SC(=S)C2C=CC=NC21 (stereo unspecified) | 27.6 µM (inactive) | > 100 µM (inactive) | 21.3 µM (inactive) | 13.2 µM (inactive) | 15.5 µM (inactive) | 14.9 µM (inactive) | 15.3 µM (inactive) | 17.3 µM (inactive) | 22.2 µM (inactive) | 14.3 µM (inactive) | 20.9 µM (inactive) | 25 µM (inactive) | 18.3 µM (inactive) | 19.5 µM (inactive) | > 100 µM (inactive) | > 100 µM (inactive) | 18.9 µM (inactive) | 14.7 µM (inactive)
10 | FC(F)(F)C1(C(F)(F)F)C2CCC3(CC(F)(F)C(F)(F)S3)C1C2 (stereo unspecified) | 57 µM (inactive) | 24.5 µM (inactive) | 31.5 µM (inactive) | 32.4 µM (inactive) | > 100 µM (inactive) | 25.8 µM (inactive) | > 100 µM (inactive) | 34 µM (inactive) | 64.7 µM (inactive) | 56.2 µM (inactive) | > 100 µM (inactive) | > 100 µM (inactive) | 31.8 µM (inactive) | 44.6 µM (inactive) | > 100 µM (inactive) | > 100 µM (inactive) | > 100 µM (inactive) | 28.8 µM (inactive)
11 | O=C1OC[C@@H]2Cc3c([nH]c4ccccc34)[C@@H](c3ccc(O)cc3)N12 | 41.7 µM (inactive) | 30.1 µM (inactive) | 22.4 µM (inactive) | 36.3 µM (inactive) | 38.4 µM (inactive) | 21 µM (inactive) | 23.1 µM (inactive) | 27.2 µM (inactive) | 29 µM (inactive) | 29.3 µM (inactive) | 34.7 µM (inactive) | 30.1 µM (inactive) | 17.3 µM (inactive) | 42.6 µM (inactive) | 54.6 µM (inactive) | 54.1 µM (inactive) | 51.5 µM (inactive) | 30.6 µM (inactive)
12 | C/N=C(\Nc1cccc(C(F)(F)F)c1)SCc1ccc(N=C=S)cc1 | 19.9 µM (inactive) | 23.4 µM (inactive) | 16.6 µM (inactive) | 20.2 µM (inactive) | 15.6 µM (inactive) | 4.66 µM (inactive) | – | 14.7 µM (inactive) | 19.8 µM (inactive) | 10.4 µM (inactive) | 22.1 µM (inactive) | 19.6 µM (inactive) | 13.4 µM (inactive) | 31.2 µM (inactive) | 21 µM (inactive) | 20.2 µM (inactive) | 13.8 µM (inactive) | 15.1 µM (inactive)
13 | CCOC(=O)/C(=C\c1ccc(F)cc1)C(C)=O | 17.8 µM (inactive) | 26.3 µM (inactive) | 36 µM (inactive) | 22.3 µM (inactive) | 13.5 µM (inactive) | 17.5 µM (inactive) | 22.9 µM (inactive) | 19.2 µM (inactive) | 35.5 µM (inactive) | 14.3 µM (inactive) | 35.6 µM (inactive) | 29.2 µM (inactive) | 17 µM (inactive) | 29.1 µM (inactive) | – | 16.5 µM (inactive) | 21.8 µM (inactive) | 16.2 µM (inactive)
14 | COC(=O)[C@]12CC[C@H]3CN(C(=O)OCc4ccccc4)[C@H]([C@H]31)[C@H](c1ccco1)N2 | 0.0226 µM (active) | 33.4 µM (inactive) | 20.1 µM (inactive) | 39.9 µM (inactive) | > 100 µM (inactive) | 53.2 µM (inactive) | 38 µM (inactive) | 23.3 µM (inactive) | 69.7 µM (inactive) | 14.1 µM (inactive) | 18.1 µM (inactive) | 33 µM (inactive) | > 100 µM (inactive) | 57 µM (inactive) | 51.3 µM (inactive) | > 100 µM (inactive) | 42.1 µM (inactive) | > 100 µM (inactive)
15 | CC(=O)Oc1ccc2c(c1)CC[C@@H]1C2[C@@H](O[N+](=O)[O-])C[C@@]2(C)C1CC[C@@H]2O (stereo partly specified) | 31.2 µM (inactive) | 22.1 µM (inactive) | 50.8 µM (inactive) | 16.8 µM (inactive) | 10.6 µM (inactive) | 27.7 µM (inactive) | 28.3 µM (inactive) | 32.1 µM (inactive) | 48.8 µM (inactive) | 21.1 µM (inactive) | 26.9 µM (inactive) | 31.3 µM (inactive) | 38.7 µM (inactive) | 32.6 µM (inactive) | 48.9 µM (inactive) | 35.5 µM (inactive) | 47.4 µM (inactive) | 43.9 µM (inactive)
